Reference: patent US9359196B2, “Antiproliferative compositions comprising curcumin analogs and methods of producing and using same” (The Board of Regents of the University of Oklahoma, priority 2009, dated 2016)

Assays:
[1] = tested on: colon (HCT-116) cancer cells; assay: Proliferation of colon cancer HCT-116 cells; format: cell-based
[2] = Phase solubility analysis with HPβCD; format: physicochemical
Experimental: CLEFMA was synthesized and characterized according to the methods described in Example 1. A phase solubility analysis of CLEFMA was performed according to the published method [Higuchi et al., 1965], and ICs of CLEFMA with HPβCD in the solution phase were prepared as reported previously [Agashe et al., 2010]. Briefly, an excess of CLEFMA was added to 5 ml of HPβCD solution (1 g/ml). The mixture was continuously agitated on a shaker incubator at 25° C. for 72 h. After allowing settling of coarse particulate matter for 6 h, the supernatant was centrifuged at 14,000 rpm for 15 min to obtain a clear supernatant free of any insoluble material. The solution was passed through a sterile 0.22 μm cellulose acetate filter, and the amount of HPβCD-solubilized CLEFMA was estimated spectrophotometrically at 320 nm. The phase solubility diagram was constructed by plotting the estimated CLEFMA concentration against HPβCD concentrations. The stability constant was calculated from the phase diagram using the following equation— K1:1=Slope/[S0(1−Slope)], where S0 is CLEFMA solubility in the absence of HPβCD
The complexation efficiency (CE) was calculated as a product of S0 and K1:1

[3] = tested on: Human lung adenocarcinoma cell line NCI-H441; assay: In vitro anti-proliferative activity in H441 cells (hexosaminidase), Example 2; format: cell-based
Experimental: (§1) Human lung adenocarcinoma cell line NCI-H441 (ATCC # HTB-174) and normal lung fibroblasts LL-24 (ATCC #CCL-151) were obtained from American Type Culture Collection (Manassas, Va.). The cells were maintained at 37° C. with 5% CO2 in RPMI 1640 medium (Invitrogen, Carlsbad, Calif.). The medium was supplemented with 10% heat-inactivated fetal bovine serum and 50 μg/ml of gentamicin (GIBCO Laboratories, Grand Island, N.Y.). For cell proliferation assay, the cells were seeded in 96-well flat-bottom tissue culture plates at a density of 0.5−1×10^4 cells per well. The cells were allowed to adhere and grow overnight, followed by treatment with CLEFMA or CLEFMA-liposomes. The concentration of CLEFMA was maintained in the range of 0.1-25 μM in 100 μl of RPMI 1640 medium. For comparison, the cells were also treated with 1 and 10 μM natural curcumin and EF24. EF24 is a potent synthetic curcuminoid and a close analog of CLEFMA [Adams et al., 2004]. All solutions of plain drugs were made in dimethylsulfoxide (DMSO). The concentration of DMSO in the treatment medium was maintained at 0.1%. The control wells received equivalent amounts of DMSO or phospholipid-matched control liposomes. Inhibition of cell proliferation was determined by measuring a decrease in hexosaminidase activity as described by Landegren [Landegren, 1984]. Para-nitrophenol-N-acetyl-beta-D-glucosaminide (60 μl per well) was used as the substrate for the hexosaminidase enzyme. The results of hexosaminidase assay were also confirmed by visualization of cultured cells under a microscope.

[4] = tested on: normal lung fibroblasts LL-24; assay: In vitro anti-proliferative activity in normal lung fibroblasts LL-24; format: cell-based; settings: LL-24, identical treatment conditions (10 μM, 24 h)
Experimental: as §1, with “Para-nitrophenol-N-acetyl-beta-D-glucosaminide (60 μl per well) was used as the substrate for the hexosaminidase enzyme. The results of hexosaminidase assay were also confirmed by visualization of cultured cells under a microscope.” left out

[5] = Histopathology of liver, lung and kidney; format: in vivo; settings: rats treated with CLEFMA liposomes
Description: After the animals were euthanized, a part of the liver, lung and kidney were fixed in 10% formalin. The formalin-preserved tissues were used for histology by staining 5 μm sections of paraffin-embedded tissues with H&E stain. The sections were read by a veterinary pathologist (OUHSC, Oklahoma City) in a blinded fashion for the presence of necrosis, hemorrhage, inflammation or any other pathological changes.

H441 cells [6] = assay: Cell proliferation assay in H441 cells (hexosaminidase), Example 3; format: cell-based, human
Experimental: Cell proliferation assay: CLEFMA was synthesized and analyzed for purity by the methods detailed elsewhere. Doxorubicin (DOX, GBiosciences, Maryland Heights, Mo.), Paclitexal (PAX, EMD Chemicals, Gibbstown, N.J.), Curcumin (CUR, Sigma, St. Louis, Mo.) and Gemcitabine (GMCB, Acros Organics, Morris Plains, N.J.) were obtained from commercial sources. For cell proliferation assays, the cells were seeded in 96-well, flat-bottom tissue culture plates at a density of 5,000 cells per well. The cells were allowed to adhere and grow overnight, followed by their treatment with drugs (0-20 μM). All drugs were added as solutions in dimethylsulfoxide (DMSO) filtered through 0.2-μm nylon filters; control wells received identical amounts of DMSO without any drugs. The inhibition of cell proliferation was determined after 24-48 h by measuring the decrease in hexosaminidase activity as described by Landegren [Landegren, 1984]; para-nitrophenol-N-acetyl-beta-D-glucosaminide was used as a substrate for the hexosaminidase enzyme. To assess the effect of antioxidants, the cells were simultaneously treated with catalase (CAT, 1000 U), superoxide dismutase (SOD, 500 U) and N-acetylcysteine (NAC, 1 mM). A non-toxic concentration of CAT (Worthington, N.J.), SOD (Sigma, St. Louis, Mo.) and NAC (Enzo Life Sciences, Plymouth Meeting, Pa.) was established in H441 cells prior to these experiments.

H441 cells [7] = assay: GSH/GSSG assay in H441 cells; format: cell-based, human; settings: 12 and 24 h
Experimental: Glutathione-to-glutathione disulfide (GSH/GSSG) assay: In order to assess the effect of CLEFMA on cellular GSH levels, a kit from Oxford Biomedical Research (Oxford, Mich.) was used and followed a modification of the method reported elsewhere (NCL Method GTA-3, Nanotechnology Characterization Lab, Frederick, Md.). H441 were seeded in a 12-well plate (1 million cells/well) and treated with CLEFMA for 12 and 24 h. The medium was removed and the cell layer was washed twice with ice-cold PBS. After adding 100 μl of ice-cold 5% m-phosphoric acid, the cells were scraped into a microfuge tube and centrifuged at 1000×g at 4° C. for 10 min. The supernatant was removed to a fresh tube for the GSSG and GSH assays. For the GSSG determination, approximately 30 μl supernatant was mixed with 20 μl thiol scavenger and 130 μl ice-cold assay buffer, and for the GSH assay, approximately 5 μl of the supernatant was diluted in 180 μl with ice-cold assay buffer. […] The plate was read in a microplate reader at 405-414 nm at 0 and 10 min after DTNB was added. The GSH and GSSG concentrations were determined following a linear regression analysis and normalized to total protein. The ratio (GSH−2GSSG)/GSSG was calculated and expressed as the percent of untreated control cells.

O=C(O)C=CC(=O)N1CC(=Cc2ccccc2Cl)C(=O)C(=Cc2ccccc2Cl)C1 [Compound 29, 4-[3,5-Bis-(2-chlorobenzylidene)-4-oxo-piperidin-1-yl]-4-oxo-2-butenoic acid]
control of proliferation [1]: equally potent in controlling proliferation | stability constant of the complex with HPβCD ([2]; 25° C.): 0.0126 M⁻¹ | complexation efficiency ([2]; product of S0 and K1:1): approximately 0.57 | anti-proliferative activity in H441 cells [3]: more potent than curcumin and another synthetic curcuminoid EF24 | H441 cells surviving ([3]; 24 h treatment with 10 μM): Less than 40% | effect on normal lung fibroblasts [4]: essentially remained unscathed | histopathological toxicity in liver, lung and kidney [5]: no toxicities in these tissues | antiproliferative activity versus PAX, GMCB, DOX, CUR (H441 cells [6]; 10 and 20 μM): antiproliferative activity comparable to that shown by these drugs | effect of co-administered CAT, SOD, NAC on cytotoxicity (H441 cells [6]; CLEFMA 10 and 20 μM): partially rescue CLEFMA-induced cytotoxicity | GSH/GSSG ratio (H441 cells [7]): strong dose-dependent reduction of the GSH/GSSG ratio
